The supplement of paper PMC10307832

Columns and labels:
Assay in all cases: relative viability (nuclei count vs DMSO), 5 days (fraction); higher = more cells survive
Elesclomol + Bortezomib = compound: CN(NC(=O)CC(=O)NN(C)C(=S)c1ccccc1)C(=S)c1ccccc1 [Elesclomol] + CC(C)C[C@H](NC(=O)[C@H](Cc1ccccc1)NC(=O)c1cnccn1)B(O)O [Bortezomib] (partner 0.002 µM)
Procedure, shortened: (§1)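 Medians of duplicate plates are given as relative viability. That measure is the nuclei count in treated wells divided by the count in vehicle wells. Counts were taken on 4× images of lung cancer cell lines in 1536-well plates, 5 days after pin-tool dosing the day after seeding with one drug alone or a fixed anchor-drug dose plus five library-drug doses (not always all listed) in √10 steps.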

Elesclomol + Pemetrexed = compound: CN(NC(=O)CC(=O)NN(C)C(=S)c1ccccc1)C(=S)c1ccccc1 [Elesclomol] + Nc1nc2[nH]cc(CCc3ccc(C(=O)N[C@@H](CCC(=O)O)C(=O)O)cc3)c2c(=O)[nH]1 [Pemetrexed] (partner 0.2 µM)
Procedure, shortened: as §1

Elesclomol + Linsitinib = compound: CN(NC(=O)CC(=O)NN(C)C(=S)c1ccccc1)C(=S)c1ccccc1 [Elesclomol] + C[C@]1(O)C[C@@H](c2nc(-c3ccc4ccc(-c5ccccc5)nc4c3)c3c(N)nccn32)C1 [Linsitinib] (partner 1 µM)
Procedure, shortened: as §1

Elesclomol + Phenformin = compound: CN(NC(=O)CC(=O)NN(C)C(=S)c1ccccc1)C(=S)c1ccccc1 [Elesclomol] + N=C(N)NC(=N)NCCc1ccccc1 [Phenformin] (partner 250 µM)
Procedure, shortened: as §1

Elesclomol + Tozasertib = compound: CN(NC(=O)CC(=O)NN(C)C(=S)c1ccccc1)C(=S)c1ccccc1 [Elesclomol] + Cc1cc(Nc2cc(N3CCN(C)CC3)nc(Sc3ccc(NC(=O)C4CC4)cc3)n2)n[nH]1 [Tozasertib] (partner 0.1 µM)
Procedure, shortened: as §1

Cell Line	relative viability (Elesclomol + Bortezomib; first compound 0.003162 µM)	relative viability (Elesclomol + Bortezomib; first compound 0.01 µM)	relative viability (Elesclomol + Bortezomib; first compound 0.03162 µM)	relative viability (Elesclomol + Bortezomib; first compound 0.1 µM)	relative viability (Elesclomol + Pemetrexed; first compound 0.003162 µM)	relative viability (Elesclomol + Pemetrexed; first compound 0.01 µM)	relative viability (Elesclomol + Pemetrexed; first compound 0.03162 µM)	relative viability (Elesclomol + Pemetrexed; first compound 0.1 µM)	relative viability (Elesclomol + Linsitinib; first compound 0.003162 µM)	relative viability (Elesclomol + Linsitinib; first compound 0.01 µM)	relative viability (Elesclomol + Linsitinib; first compound 0.03162 µM)	relative viability (Elesclomol + Linsitinib; first compound 0.1 µM)	relative viability (Elesclomol + Phenformin; first compound 0.003162 µM)	relative viability (Elesclomol + Phenformin; first compound 0.01 µM)	relative viability (Elesclomol + Phenformin; first compound 0.03162 µM)	relative viability (Elesclomol + Phenformin; first compound 0.1 µM)	relative viability (Elesclomol + Tozasertib; first compound 0.003162 µM)	relative viability (Elesclomol + Tozasertib; first compound 0.01 µM)	relative viability (Elesclomol + Tozasertib; first compound 0.03162 µM)	relative viability (Elesclomol + Tozasertib; first compound 0.1 µM)
EMC-BAC-2	1.08	0.948	0.866	0.637	0.486	0.399	0.525	0.426	0.851	0.807	0.699	0.455	0.552	0.372	0.414	0.266	0.307	0.265	0.275	0.213
NCI-H661	0.635	0.288	0.209	0.182	0.884	0.596	0.38	0.331	0.55	0.242	0.169	0.145	0.272	0.305	0.25	0.193	0.356	0.3	0.245	0.213
LU99A	1.21		1.18	0.121	0.188	0.183	0.185	0.198	0.544		0.615	0.117	0.804	0.561	0.901	0.219	0.305	0.245	0.274	0.165
LK-2						0.289	0.276	0.128	0.428	0.21	0.0808	0.0624	0.438	0.389	0.353	0.141	0.172	0.166	0.153	0.12
NCI-H3122	1.05	0.994	0.957	0.409	0.177	0.229	0.194	0.128	1.04	1.07	0.956	0.228	0.325	0.274	0.261	0.219	0.329	0.118	0.0927	0.0898
NCI-H2347	0.929	0.765	0.891	0.544	0.401	0.372	0.411	0.441	0.967	0.88	0.992	0.629	0.426	0.231	0.294	0.281	0.683	0.424	0.264	0.248
NCI-H1563	0.732	0.62	0.457	0.492	0.741	0.698	0.544	0.619	0.817	0.705	0.632	0.468	0.589	0.569	0.516	0.479				
HCC-827	1.03	0.998	0.947	0.999	0.275	0.272	0.258	0.246	0.959	0.851	1.03	0.707	0.382	0.402	0.371	0.393	0.432	0.4	0.421	0.355
NCI-H1666	0.826	0.334	0.278	0.172	0.998	0.801	0.817	0.724	0.833	0.358	0.321	0.202	0.566	0.554	0.494	0.476	0.579	0.457	0.375	0.403
NCI-H358					0.159	0.123	0.142	0.133	0.279	0.234	0.152	0.156	0.305	0.158	0.148	0.166	0.0718	0.0649	0.0613	0.0545
201T	1.09	1.07	1.08	1.05	0.361	0.369	0.309	0.394	1.08	1.01	1	1.01	0.464	0.428	0.435	0.385	0.984	0.88	0.911	0.536
PC-3 [JPC-3]	0.82	0.73	0.764	0.755	1.04	0.714	0.518	0.499	0.958	0.907	0.984	0.791	0.474	0.474	0.496	0.401	0.913	0.783	0.941	0.569
NCI-H2405	0.959	0.842	0.515	0.458	1.03	0.707	0.323	0.297	0.899	0.315	0.26	0.27	0.39	0.335	0.335	0.366	0.691	0.47	0.292	0.315
LXF-289	0.997	0.998	0.968	0.673	0.894	0.971	0.867	0.552	0.941	0.863	0.938	0.693	0.516	0.406	0.487	0.467	0.193	0.17	0.188	0.174
EKVX	0.997	0.633	0.312	0.208	0.366	0.33	0.151	0.131	0.915	0.6	0.239	0.17	0.219	0.225	0.201	0.172	0.343	0.281	0.199	0.141
A-427	0.956	0.908	0.99	0.483	0.937	0.707	0.201	0.186	1.1	1.08	1.14	0.578	0.342	0.216	0.319	0.104	0.226	0.186	0.149	0.0996

Cell Line	relative viability (Elesclomol + Bortezomib; first compound 0.003162 µM)	relative viability (Elesclomol + Bortezomib; first compound 0.01 µM)	relative viability (Elesclomol + Bortezomib; first compound 0.03162 µM)	relative viability (Elesclomol + Bortezomib; first compound 0.1 µM)	relative viability (Elesclomol + Pemetrexed; first compound 0.003162 µM)	relative viability (Elesclomol + Pemetrexed; first compound 0.01 µM)	relative viability (Elesclomol + Pemetrexed; first compound 0.03162 µM)	relative viability (Elesclomol + Pemetrexed; first compound 0.1 µM)	relative viability (Elesclomol + Linsitinib; first compound 0.003162 µM)	relative viability (Elesclomol + Linsitinib; first compound 0.01 µM)	relative viability (Elesclomol + Linsitinib; first compound 0.03162 µM)	relative viability (Elesclomol + Linsitinib; first compound 0.1 µM)	relative viability (Elesclomol + Phenformin; first compound 0.003162 µM)	relative viability (Elesclomol + Phenformin; first compound 0.01 µM)	relative viability (Elesclomol + Phenformin; first compound 0.03162 µM)	relative viability (Elesclomol + Phenformin; first compound 0.1 µM)	relative viability (Elesclomol + Tozasertib; first compound 0.003162 µM)	relative viability (Elesclomol + Tozasertib; first compound 0.01 µM)	relative viability (Elesclomol + Tozasertib; first compound 0.03162 µM)	relative viability (Elesclomol + Tozasertib; first compound 0.1 µM)
IA-LM	0.534	0.137	0.0664	0.0121					0.47	0.265	0.134	0.022								
ChaGo-K-1	0.794	0.402	0.273	0.275	0.268	0.255	0.204	0.147					0.503	0.393	0.275	0.174	0.223	0.177	0.147	0.163
NCI-H2342					0.732	0.634	0.728	0.705					0.482	0.596	0.355	0.292	0.466	0.476	0.332	0.324
SK-MES-1					0.982	0.597	0.524	0.415	1.04	0.814	0.992	0.62	0.644	0.456	0.506	0.421	0.842	0.791	0.318	0.479
LCLC-97TM1	0.493	0.0794	0.0851	0.0274	0.159	0.133	0.164	0.0782	0.175	0.16	0.141	0.116	0.369	0.168	0.422	0.387	0.196	0.148	0.178	0.153
NCI-H2170					0.28	0.28	0.27	0.26					0.39	0.402	0.376	0.341	0.715	0.641	0.703	0.491
ABC-1	0.133	0.23	0.25	0.228					0.267	0.207	0.308	0.212	0.239	0.22	0.224	0.17	0.193	0.203	0.18	0.187
NCI-H1792	0.894	0.85	0.968	0.986	0.79		0.793	0.277	0.506	0.387	0.584	0.577	0.342		0.339	0.118				
NCI-H727	0.679	0.405	0.185	0.0498					0.297	0.217	0.117	0.0471	0.547	0.488	0.402	0.177	0.661	0.357	0.424	0.249
NCI-H1944					0.613	0.724	0.572	0.189	1.14	1.18	1.12	1.13	0.216	0.169	0.212	0.201	0.236	0.251	0.23	0.139
NCI-H1703	0.136	0.0882	0.104	0.12					0.179	0.122	0.0723	0.0652								
NCI-H1650	0.229	0.206	0.165	0.16	0.304	0.294	0.333	0.095					0.315	0.211	0.173	0.133	0.227	0.168	0.139	0.136
NCI-H1395					0.829	0.436	0.201	0.183	0.857	0.347	0.716	0.26	0.45	0.364	0.296	0.27	0.832	0.461	0.243	0.276
NCI-H1793					0.833	0.643	0.855	0.102	0.901	0.733	0.927	0.25	0.302	0.35	0.335	0.247	0.356	0.286	0.348	0.132
NCI-H522					1.08	1.09	1.18	0.641					0.681	0.736	0.668	0.549	0.563	0.608	0.567	0.465
SW 900					0.495	0.453	0.289	0.0977					0.521	0.337	0.178	0.0792	0.534	0.3	0.121	0.146
